Patent US10865216B2, “Tricyclic Gyrase inhibitors” (MERCK SHARP & DOHME CORP., priority 2012, dated 2020)

Legend:
Format in all cases: cell-based
A. baumannii ATCC 19606 = experiment: MIC, A. baumannii ATCC 19606; settings: Table 10; Ab = A. baumannii, strain not stated
[1] = test system: K. pneumoniae ATCC 700603; experiment: MIC, K. pneumoniae ATCC 700603; settings: Table 10; Kpn = K. pneumoniae
Y. pestis CO92 pgm- = settings: Table 10
S. aureus ATCC 13709 = experiment: MIC, S. aureus ATCC 13709; settings: for MIC Sa: S. aureus, Alamar Blue read after overnight incubation at 35° C.; for Sa MIC: Table 10, Sa = S. aureus; for SA MIC: Table 14, R2 is a 5 membered heterocycle
S. pneumoniae ATCC 51916 = experiment: MIC, S. pneumoniae ATCC 51916; settings: Table 10; Spn = S. pneumoniae
E. coli ATCC 25922 = experiment: MIC, E. coli ATCC 25922; settings: for MIC Ec: E. coli, Alamar Blue read after overnight incubation at 35° C.; for Ec MIC: Table 10, Ec = E. coli, strain not stated; for EC8 MIC: Table 14, R2 is a 5 membered heterocycle, EC8 not defined
[2] = test system: F. tularensis holarctica LVS; experiment: microbe, parasite or virus in culture; settings: Table 10; Ft = F. tularensis, strain not stated
[3] = test system: B. thailandensis ATCC E264; experiment: microbe, parasite or virus in culture
P. aeruginosa ATCC 15692 = experiment: MIC, P. aeruginosa ATCC 15692; settings: Table 10; Pa = P. aeruginosa
[4] = test system: S. aureus ATCC 13709 + mouse serum; experiment: MIC, SA + serum (S. aureus ATCC 13709, MHCA + mouse serum); settings: Table 14; R2 is a 5 membered heterocycle

Row | Compound | Ab MIC (A. baumannii ATCC 19606) | Kpn MIC [1] | Yp MIC (Y. pestis CO92 pgm-) | MIC Sa (S. aureus ATCC 13709) | Sa MIC (S. aureus ATCC 13709) | Spn MIC (S. pneumoniae ATCC 51916) | MIC Ec (E. coli ATCC 25922) | Ec MIC (E. coli ATCC 25922) | Ft MIC [2] | Bt MIC [3] | Pa MIC (P. aeruginosa ATCC 15692) | SA MIC (S. aureus ATCC 13709) | EC8 MIC (E. coli ATCC 25922) | SA+ serum MIC [4]
1 | CNc1cc(F)cc2c1[nH]c1nc(Oc3cnc(C)nc3)nc(N3CC(N)C4(CC4)C3)c12 (centres unmarked) [Compound 4.069] | ≤0.5 µg/mL | 2 µg/mL | ≤0.5 µg/mL | ≤0.5 µg/mL | ≤0.5 µg/mL | ≤0.5 µg/mL | ≤0.5 µg/mL | ≤0.5 µg/mL | 2 µg/mL | ≤0.5 µg/mL | 4 µg/mL | – | – | –
2 | CNc1cc(F)cc2c1[nH]c1nc(Oc3cnc4cccnc4c3)nc(N3CC4C(N)C4C3)c12 (centres unmarked) [Compound 4.035] | ≤0.5 µg/mL | 2 µg/mL | ≤0.5 µg/mL | ≤0.5 µg/mL | ≤0.5 µg/mL | ≤0.5 µg/mL | ≤0.5 µg/mL | ≤0.5 µg/mL | 1 µg/mL | ≤0.5 µg/mL | 4 µg/mL | – | – | –
3 | CNc1cc(F)cc2c1[nH]c1nc(Oc3cnc(C)nc3)nc(N3CC4C(N)C4C3)c12 (centres unmarked) [Compound 4.073] | ≤0.5 µg/mL | 2 µg/mL | ≤0.5 µg/mL | ≤0.5 µg/mL | ≤0.5 µg/mL | ≤0.5 µg/mL | ≤0.5 µg/mL | ≤0.5 µg/mL | 1 µg/mL | ≤0.5 µg/mL | 4 µg/mL | – | – | –
4 | CNc1cc(F)cc2c1[nH]c1nc(Sc3nnc(C)s3)nc(N3C[C@H]4C[C@@H]3C[C@H]4N)c12 | – | – | – | – | – | – | – | – | – | – | – | ≤ 0.5 µg/mL | ≤ 0.5 µg/mL | ≤ 0.5 µg/mL
5 | CNc1cc(F)cc2c1[nH]c1nc(Oc3cnc(C)nc3)nc(N3CCC4(CC4N)C3)c12 (centres unmarked) [Compound 4.066] | ≤0.5 µg/mL | 2 µg/mL | ≤0.5 µg/mL | ≤0.5 µg/mL | ≤0.5 µg/mL | ≤0.5 µg/mL | ≤0.5 µg/mL | ≤0.5 µg/mL | 1 µg/mL | ≤0.5 µg/mL | 2 µg/mL | – | – | –
6 | CNc1cc(F)cc2c1[nH]c1nc(Oc3cnc(C)nc3)nc(N3CCC4(CCC4N)C3)c12 (centres unmarked) [Compound 4.117] | ≤0.5 µg/mL | 2 µg/mL | ≤0.5 µg/mL | ≤0.5 µg/mL | ≤0.5 µg/mL | ≤0.5 µg/mL | ≤0.5 µg/mL | ≤0.5 µg/mL | 1 µg/mL | ≤0.5 µg/mL | 1 µg/mL | – | – | –
7 | CNc1cc(F)cc2c1[nH]c1nc(Oc3cnc(C)nc3)nc(N3C[C@@H]4CCN[C@@H]4C3)c12 [Compound 4.103] | ≤0.5 µg/mL | 2 µg/mL | ≤0.5 µg/mL | ≤0.5 µg/mL | ≤0.5 µg/mL | ≤0.5 µg/mL | ≤0.5 µg/mL | ≤0.5 µg/mL | 1 µg/mL | ≤0.5 µg/mL | 2 µg/mL | – | – | –
8 | CCOC(=O)c1csc(Nc2nc(N3C[C@H]4C[C@@H]3C[C@H]4N)c3c(n2)[nH]c2c(NC)cc(F)cc23)n1 [drawing 1760] | – | – | – | – | – | – | – | – | – | – | – | ≤ 0.5 µg/mL | 1 µg/mL | > 16 µg/mL
9 | CNc1cc(F)cc2c1[nH]c1nc(Oc3cnc(C)nc3)nc(N3CC4(CC[C@H]4N)C3)c12 [Compound 4.105] | ≤0.5 µg/mL | 2 µg/mL | ≤0.5 µg/mL | ≤0.5 µg/mL | ≤0.5 µg/mL | ≤0.5 µg/mL | ≤0.5 µg/mL | ≤0.5 µg/mL | 1 µg/mL | ≤0.5 µg/mL | 1 µg/mL | – | – | –
